We go through three molecules from paper PMC6375636, “Monotherapy with a low-dose lipopeptide HIV fusion inhibitor maintains long-term viral suppression in rhesus macaques” (PLoS Pathogens, 2019).

Where two headings read alike, the source gives them in different places. Peptide text beside a SMILES is read from it. * marks the point of attachment. Stearoyl = CCCCCCCCCCCCCCCCCC(=O)*; Palmitoyl = CCCCCCCCCCCCCCCC(=O)*

Data set [1] addresses T1, gp41 NHR-derived target mimic peptide N39 (Human immunodeficiency virus type 1 group M subtype B, UniProt P04578).
T1 construct: the gp41 NHR-derived target mimic peptide N39
Put plainly: CD spectroscopy of lipopeptides in complex with target mimic peptide N39. Further details: [θ]222: unit not given here. The format is binding, HIV-1. Particulars: complex with N39, each peptide 10 μM in PBS; representative of 2 assays. The text has this:
Spectra were corrected by subtracting a solvent blank.

A further data set addresses T2, HIV-1HXB2 Env (Human immunodeficiency virus type 1 group M subtype B, UniProt P04578).
T2 construct: HL2/3 cells, which stably express high levels of Env, Gag, Tat, Rev, and Nef proteins of the integrated HIV-1 molecular clone HXB2/3gpt; host or cells: HL2/3 cells (effector), cocultured with TZM-bl target cells
Nature of the data set: HIV-1HXB2 Env-mediated cell-cell fusion (HL2/3 effector, TZM-bl target, luciferase reporter). The format is cell-based. Here is the method:
The inhibitory activities of inhibitors on HIV-1HXB2 Env-mediated cell-cell fusion were determined by a reporter gene assay based on the activation of an HIV LTR-driven luciferase cassette in TZM-bl cells (target) by HIV-1 tat from HL2/3 cells (effector). Briefly, 1 x 10^4/well of TZM-bl cells were plated in 96-well plates and incubated at 37°C overnight. Then, 3 x 10^4/well of HL2/3 cells were cocultured with target cells for 6 h at 37°C in the presence or absence of an inhibitor at graded concentrations. Luciferase activity was measured using luciferase assay reagents and a Luminescence Counter (Promega, Madison, Wisconsin, USA).

The test system of data set [2] is HIV-1NL4-3(D36G) pseudovirus. The format is cell-based. Here is the method:
(§1) The inhibitory activities of inhibitors against HIV-1 pseudoviruses and replication-competent isolates were measured as described previously. Briefly, HIV-1 pseudoviruses were generated via the cotransfection of HEK293T cells with an Env-expressing plasmid and a backbone plasmid that encodes Env-defective, luciferase-expressing HIV-1 genome (pSG3Δenv). Viral stocks of replication-competent HIV-1 isolates were generated by transfecting viral molecular clones into HEK293T cells. […] Inhibitors were prepared in 3-fold dilutions, mixed with 100 TCID50 of a virus, and then incubated for 1 h at room temperature. […] Luciferase activity was measured as described above.

Data set [3] deals with HIV-1 pseudovirus, primary Env CNE55. The format is cell-based. Particulars: Env CNE55, subtype A/E; mean ± SD of 3 assays in triplicate. As for the experimental part:
(§2) The inhibitory activities of inhibitors against HIV-1 pseudoviruses and replication-competent isolates were measured as described previously. Briefly, HIV-1 pseudoviruses were generated via the cotransfection of HEK293T cells with an Env-expressing plasmid and a backbone plasmid that encodes Env-defective, luciferase-expressing HIV-1 genome (pSG3Δenv). Viral stocks of replication-competent HIV-1 isolates were generated by transfecting viral molecular clones into HEK293T cells. Culture supernatants were harvested at 48 h posttransfection, and 50% tissue culture infectious doses (TCID50) in TZM-bl cells were determined. Inhibitors were prepared in 3-fold dilutions, mixed with 100 TCID50 of a virus, and then incubated for 1 h at room temperature. The mixture was added to TZM-bl cells (10^4/well), and the cells were incubated for additional 48 h at 37°C. Luciferase activity was measured as described above.

The test system of data set [4] is HIV-1 pseudovirus, primary Env CH070.1. The class given is cell-based. Particulars: Env CH070.1, subtype B/C; mean ± SD of 3 assays in triplicate. As for the experimental part: as §2
The subject of data set [5] is HIV-1 pseudovirus, primary Env PVO. The format is cell-based. The conditions noted are these: subtype B, mean ± SD of 3 assays in triplicate. As for the experimental part:
as §2

The test system of data set [6] is HIV-1 pseudovirus, primary Env 92UG037.8. The class given is cell-based. Particulars: Env 92UG037.8, subtype A; mean ± SD of 3 assays in triplicate. As for the experimental part:
as §2

Data set [7] relates to HIV-1 pseudovirus, primary Env BJOX002000.03.2. The format is cell-based. Particulars: Env BJOX002000.03.2, subtype B/C; mean ± SD of 3 assays in triplicate. Here is the method:
as §2

The test system of data set [8] is HIV-1 pseudovirus, primary Env CE703010217_B6. The class given is cell-based. Particulars: Env CE703010217_B6, subtype C; mean ± SD of 3 assays in triplicate. Here is the method: as §2
Another data set deals with HIV-1 NL4-3. The format is cell-based. Particulars: Table 2; NL4-3, subtype B, X4; mean ± SD of 3 assays in triplicate. As for the experimental part:
as §2

Data set [9] relates to HIV-1 pseudovirus, primary Env SF162. The class given is cell-based. Particulars: Env SF162, subtype B; mean ± SD of 3 assays in triplicate. As for the experimental part: as §2
For data set [10], the system named is HIV-1 pseudovirus, primary Env CAP45.2.00.G3. The format is cell-based. Particulars: Env CAP45.2.00.G3, subtype C; mean ± SD of 3 assays in triplicate. Here is the method: as §2
Data set [11] concerns HIV-1 pseudovirus, primary Env CH120.6. The format is cell-based. The conditions noted are these: Env CH120.6, subtype B/C; mean ± SD of 3 assays in triplicate. Here is the method: as §2
The test system of data set [12] is HIV-1 pseudovirus, primary Env pREJO4541. The format is cell-based. The conditions noted are these: Env pREJO4541, subtype B; mean ± SD of 3 assays in triplicate. As for the experimental part:
as §2

For data set [13] the following is noted: lipopeptide alone, 10 μM in PBS, representative of 2 assays; for Helix content (%): [θ]222 / -33,000.
Data set [14] has as its system NL4-3I37T/N43K pseudovirus. The format is cell-based, HIV-1. The conditions noted are these: T-20 resistant, mean ± SD of 3 assays in triplicate. Here is the method:
as §1

Data set [15] deals with NL4-3G36S/V38M pseudovirus. The class given is cell-based, HIV-1. Particulars: T-20 resistant, mean ± SD of 3 assays in triplicate. As for the experimental part: as §1
For another data set, the system named is NL4-3I37T pseudovirus. The class given is cell-based, HIV-1. Particulars: T-20 resistant, mean ± SD of 3 assays in triplicate. Here is the method: as §1
The next data set deals with NL4-3Q40H pseudovirus. The format is cell-based, HIV-1. The conditions noted are these: T-20 resistant, mean ± SD of 3 assays in triplicate. Here is the method:
as §1

Another data set deals with NL4-3V38A pseudovirus. The class given is cell-based, HIV-1. Particulars: T-20 resistant, mean ± SD of 3 assays in triplicate. Here is the method:
as §1

The test system of another data set is NL4-3V38M pseudovirus. The class given is cell-based, HIV-1. The conditions noted are these: T-20 resistant, mean ± SD of 3 assays in triplicate. Here is the method:
as §1

A further data set concerns NL4-3N43K pseudovirus. The format is cell-based, HIV-1. Particulars: T-20 resistant, mean ± SD of 3 assays in triplicate. Here is the method:
as §1

Setting [16] is: Fig 1, NL4-3(D36G) pseudovirus, mean ± SD of three assays in triplicate, read-out: Anti-HIV activity (IC50, pM) NL4-3 entry.
Where [17] appears, read: Table 4, NL4-3D36G, T-20 sensitive, mean ± SD of 3 assays in triplicate, value in parentheses behind the bound, read-out: IC50.

T1 sequence (P04578 528-566): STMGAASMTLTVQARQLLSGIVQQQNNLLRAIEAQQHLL
T2 sequence (P04578 512-856): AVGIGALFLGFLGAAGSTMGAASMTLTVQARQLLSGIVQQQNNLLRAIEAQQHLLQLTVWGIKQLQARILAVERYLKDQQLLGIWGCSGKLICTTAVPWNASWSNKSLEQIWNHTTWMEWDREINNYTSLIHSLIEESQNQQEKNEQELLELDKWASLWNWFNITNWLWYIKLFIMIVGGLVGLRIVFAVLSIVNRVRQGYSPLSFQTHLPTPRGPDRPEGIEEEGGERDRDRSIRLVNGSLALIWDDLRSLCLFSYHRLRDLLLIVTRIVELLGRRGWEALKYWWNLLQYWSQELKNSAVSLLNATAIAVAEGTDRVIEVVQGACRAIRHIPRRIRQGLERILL

In the case of `CCCCCCCCCCCCCCCC(=O)NCCCC[C@H](NC(=O)[C@H](CCC(=O)O)NC(=O)[C@H](CC(C)C)NC(=O)[C@H](CCCCN)NC(=O)[C@H](CCCCN)NC(=O)[C@H](CC(C)C)NC(=O)[C@H](CCC(=O)O)NC(=O)[C@H](CCC(=O)O)NC(=O)[C@H](CCC(=O)O)NC(=O)[C@H](CC(N)=O)NC(=O)[C@H](CCCCN)NC(=O)[C@H](CCCCN)NC(=O)[C@H](CCC(N)=O)NC(=O)[C@H](CCC(N)=O)NC(=O)[C@H](CCC(=O)O)NC(=O)[C@H](CCC(=O)O)NC(=O)[C@H](C)NC(=O)[C@H](CCCCN)NC(=O)[C@H](CCCCN)NC(=O)[C@H](CC(C)C)NC(=O)[C@H](CC(C)C)NC(=O)[C@H](CCC(=O)O)NC(=O)[C@H](CCC(=O)O)NC(=O)[C@@H](NC(=O)[C@H](CCCCN)NC(=O)[C@H](CCC(N)=O)NC(=O)[C@H](CCC(=O)O)NC(=O)[C@H](Cc1c[nH]c2ccccc12)NC(C)=O)[C@@H](C)CC)C(N)=O` [LP-52, reference compound] (Ac-WEQKIEELLKKAEEQQKKNEEELKKLEK(Palmitoyl)-NH2), the figures for the “Helix content (%)” value in data set [1] and in data set [13] were 64% and 45%, respectively. Besides, the “[θ]222” value is recorded as -21060 in data set [1] and -14952 degree.cm^2.dmol^-1 in data set [13] (room temperature). Also, the IC50 (usually the concentration that inhibits the measured activity by half) turned out to be 0.0187 ± 0.00301 nM against HIV-1HXB2 Env; 6.12 ± 0.25 pM in data set [2] (setting [16]); 0.0173 ± 0.00141 nM in [3]; 0.0276 ± 0.00333 nM in data set [4]; 0.0297 ± 0.00783 nM in [5]; 0.0282 ± 0.00827 nM in data set [6]. In addition, the IC50 in [7] is 0.0368 ± 0.00293 nM; in [8] it was 0.0117 ± 0.00137 nM; at HIV-1 NL4-3 it was 0.0045 ± 0.00249 nM; in [9], 0.0264 ± 0.00381 nM; in data set [10] it was 0.00758 ± 0.00064 nM; in [11], 0.0199 ± 0.00148 nM. The molecule further yielded an IC50 in [12] of 0.00722 ± 0.00085 nM. Besides, the “Tm (°C)” value in [13] (ellipticity at 222 nm, 20-98°C, 2°C/min) is 56 °C.

In the case of `CCCCCCCCCCCCCCCCCC(=O)NCCCC[C@H](NC(=O)[C@H](CCC(=O)O)NC(=O)[C@H](CC(C)C)NC(=O)[C@H](CCCCN)NC(=O)[C@H](CCCCN)NC(=O)[C@H](CC(C)C)NC(=O)[C@H](CCC(=O)O)NC(=O)[C@H](CCC(=O)O)NC(=O)[C@H](CCC(=O)O)NC(=O)[C@H](CC(N)=O)NC(=O)[C@H](CCCCN)NC(=O)[C@H](CCCCN)NC(=O)[C@H](CCC(N)=O)NC(=O)[C@H](CCC(N)=O)NC(=O)[C@H](CCC(=O)O)NC(=O)[C@H](CCC(=O)O)NC(=O)[C@H](C)NC(=O)[C@H](CCCCN)NC(=O)[C@H](CCCCN)NC(=O)[C@H](CC(C)C)NC(=O)[C@H](CC(C)C)NC(=O)[C@H](CCC(=O)O)NC(=O)[C@H](CCC(=O)O)NC(=O)[C@@H](NC(C)=O)[C@@H](C)CC)C(N)=O` [LP-90] (Ac-IEELLKKAEEQQKKNEEELKKLEK(Stearoyl)-NH2), the “Helix content (%)” value came out at 42% in [1] and 30% in data set [13]. Besides, in [1], the “[θ]222” value is listed as -13989. The IC50 amounted to 46.3 ± 0.79 nM in data set [14]; 2.37 ± 0.39 nM in data set [15]; 0.51 ± 0.09 nM with NL4-3I37T pseudovirus; 4.17 ± 0.14 nM in the data set on NL4-3Q40H pseudovirus; 8.25 ± 0.55 nM in the data set with NL4-3V38A pseudovirus; 4.32 ± 0.78 nM in the data set on NL4-3V38M pseudovirus. In addition, the 50% inhibitory concentration (IC50) in the data set with NL4-3N43K pseudovirus is 5.05 ± 0.13 nM; against HIV-1HXB2 Env, 0.0163 nM; in data set [2] (setting [16]) it was 3.55 pM; in data set [2] (setting [17]) it was less than 10 pM; in data set [3], 0.00254 ± 0.00089 nM; in [4], 0.0317 ± 0.00204 nM. The IC50 in data set [5] amounted to 0.0226 ± 0.0047 nM; in data set [6] it was 0.00842 ± 0.00152 nM; in data set [8] it was 0.0112 ± 0.00083 nM; against HIV-1 NL4-3, 0.0768 ± 0.019 nM; in data set [9], 0.00482 ± 0.00091 nM; in data set [10], 0.00214 ± 0.00013 nM. Also, the IC50 in [11] worked out at 0.0254 ± 0.00162 nM; in [12], 0.0159 ± 0.00313 nM.

For “enfuvirtide [Lipopeptide T-20, reference compound]”, the IC50 in data set [14] came out at 6950 ± 1140 nM; in data set [15] it was 317.3 ± 1.65 nM; in the data set with NL4-3I37T pseudovirus it was 1220 ± 120 nM; in the data set with NL4-3Q40H pseudovirus it was 1150 ± 88 nM; in the data set with NL4-3V38A pseudovirus, 2240 ± 33.1 nM; in the data set on NL4-3V38M pseudovirus it was 1050 ± 74.8 nM. Also, the IC50 stood at 748 ± 41.9 nM with NL4-3N43K pseudovirus; 8560 ± 1050 pM in data set [2] (setting [16]); 8770 ± 1020 pM in data set [2] (setting [17]); 25.1 ± 2.33 nM in data set [3]; 165 ± 28.3 nM in data set [4]; 69.7 ± 0.698 nM in [5]. Besides, the IC50 in data set [6] is 7.76 ± 1.04 nM; in data set [7] it was 26.3 ± 2.77 nM; in data set [8], 41.8 ± 2.22 nM; in data set [9] it was 17.6 ± 1.03 nM; in data set [10], 13.6 ± 2.04 nM; in [11], 48.1 ± 4.92 nM. In data set [12], the midpoint of inhibition, the IC50, lay at 55 ± 2.9 nM.
